Experimental data: ChEMBL document CHEMBL5465560, “Selectivity Literature for EUbOPEN Chemogenomic Library” (2024)

Legend:
Settings in all cases: at 10 µM
[1] = target: T1, Serine/threonine-protein kinase Nek5 (Homo sapiens) (UniProt Q6P3R8); assay: Selectivity interaction (KinomeScan (DiscoverX)) EUB0000229b NEK5
T1 sequence (whole entry): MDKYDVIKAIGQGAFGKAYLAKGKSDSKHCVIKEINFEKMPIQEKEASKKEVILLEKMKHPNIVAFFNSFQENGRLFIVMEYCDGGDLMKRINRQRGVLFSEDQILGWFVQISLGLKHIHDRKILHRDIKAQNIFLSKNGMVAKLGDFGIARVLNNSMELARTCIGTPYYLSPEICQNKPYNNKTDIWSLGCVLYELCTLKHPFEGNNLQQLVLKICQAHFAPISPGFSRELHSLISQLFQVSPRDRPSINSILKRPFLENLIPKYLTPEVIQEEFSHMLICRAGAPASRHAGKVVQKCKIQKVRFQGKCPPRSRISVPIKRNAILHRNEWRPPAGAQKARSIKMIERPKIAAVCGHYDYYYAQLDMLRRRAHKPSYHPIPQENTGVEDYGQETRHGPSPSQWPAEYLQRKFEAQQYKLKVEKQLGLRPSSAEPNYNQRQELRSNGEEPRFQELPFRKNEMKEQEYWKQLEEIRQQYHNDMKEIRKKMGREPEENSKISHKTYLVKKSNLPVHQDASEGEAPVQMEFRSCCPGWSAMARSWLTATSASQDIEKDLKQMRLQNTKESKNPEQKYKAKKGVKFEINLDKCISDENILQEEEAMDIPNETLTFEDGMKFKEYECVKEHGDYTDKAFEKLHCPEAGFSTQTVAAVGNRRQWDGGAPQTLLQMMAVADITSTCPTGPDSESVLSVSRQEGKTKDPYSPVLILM

[2] = target: T2, Cyclin-G-associated kinase (Homo sapiens) (UniProt O14976); assay: Selectivity interaction (KinomeScan (DiscoverX)) EUB0000666a GAK
T2 sequence (whole entry): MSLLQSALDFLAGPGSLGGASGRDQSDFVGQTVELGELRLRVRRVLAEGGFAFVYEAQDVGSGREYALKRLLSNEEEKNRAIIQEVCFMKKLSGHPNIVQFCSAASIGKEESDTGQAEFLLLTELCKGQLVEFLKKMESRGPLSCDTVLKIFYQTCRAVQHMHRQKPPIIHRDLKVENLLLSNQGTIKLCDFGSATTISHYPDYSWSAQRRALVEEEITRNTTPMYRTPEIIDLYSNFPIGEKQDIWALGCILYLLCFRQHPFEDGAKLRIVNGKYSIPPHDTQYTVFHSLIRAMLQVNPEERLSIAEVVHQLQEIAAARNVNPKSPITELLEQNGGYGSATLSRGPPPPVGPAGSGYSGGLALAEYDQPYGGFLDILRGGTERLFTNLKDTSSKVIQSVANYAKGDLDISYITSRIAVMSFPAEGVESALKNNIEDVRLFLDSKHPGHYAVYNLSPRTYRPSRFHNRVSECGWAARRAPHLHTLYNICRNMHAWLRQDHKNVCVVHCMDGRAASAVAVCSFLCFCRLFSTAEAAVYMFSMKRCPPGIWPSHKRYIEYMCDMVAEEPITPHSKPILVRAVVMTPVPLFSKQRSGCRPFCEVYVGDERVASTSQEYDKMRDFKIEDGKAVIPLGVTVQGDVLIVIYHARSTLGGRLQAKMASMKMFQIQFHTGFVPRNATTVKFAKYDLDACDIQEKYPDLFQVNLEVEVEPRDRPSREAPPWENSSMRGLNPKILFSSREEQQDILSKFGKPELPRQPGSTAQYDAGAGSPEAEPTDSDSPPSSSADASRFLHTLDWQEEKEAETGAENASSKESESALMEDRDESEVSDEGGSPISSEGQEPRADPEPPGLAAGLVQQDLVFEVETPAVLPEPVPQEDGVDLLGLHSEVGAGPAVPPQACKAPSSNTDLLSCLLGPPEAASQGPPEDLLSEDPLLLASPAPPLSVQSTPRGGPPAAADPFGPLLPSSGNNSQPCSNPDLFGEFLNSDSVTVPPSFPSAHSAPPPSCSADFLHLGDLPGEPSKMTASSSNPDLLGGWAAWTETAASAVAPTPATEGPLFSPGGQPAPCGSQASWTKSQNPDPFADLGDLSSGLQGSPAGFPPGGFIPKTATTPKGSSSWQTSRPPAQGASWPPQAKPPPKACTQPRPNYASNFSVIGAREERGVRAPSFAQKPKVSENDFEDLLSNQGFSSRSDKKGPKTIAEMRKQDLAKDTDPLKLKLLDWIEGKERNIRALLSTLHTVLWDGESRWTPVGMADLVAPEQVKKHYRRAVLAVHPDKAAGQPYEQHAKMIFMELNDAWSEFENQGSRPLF

[3] = target: T3, Cyclin-dependent kinase-like 5 (Homo sapiens) (UniProt O76039); assay: Selectivity interaction (KinomeScan (DiscoverX)) EUB0000655a CDKL5
T3 sequence (whole entry): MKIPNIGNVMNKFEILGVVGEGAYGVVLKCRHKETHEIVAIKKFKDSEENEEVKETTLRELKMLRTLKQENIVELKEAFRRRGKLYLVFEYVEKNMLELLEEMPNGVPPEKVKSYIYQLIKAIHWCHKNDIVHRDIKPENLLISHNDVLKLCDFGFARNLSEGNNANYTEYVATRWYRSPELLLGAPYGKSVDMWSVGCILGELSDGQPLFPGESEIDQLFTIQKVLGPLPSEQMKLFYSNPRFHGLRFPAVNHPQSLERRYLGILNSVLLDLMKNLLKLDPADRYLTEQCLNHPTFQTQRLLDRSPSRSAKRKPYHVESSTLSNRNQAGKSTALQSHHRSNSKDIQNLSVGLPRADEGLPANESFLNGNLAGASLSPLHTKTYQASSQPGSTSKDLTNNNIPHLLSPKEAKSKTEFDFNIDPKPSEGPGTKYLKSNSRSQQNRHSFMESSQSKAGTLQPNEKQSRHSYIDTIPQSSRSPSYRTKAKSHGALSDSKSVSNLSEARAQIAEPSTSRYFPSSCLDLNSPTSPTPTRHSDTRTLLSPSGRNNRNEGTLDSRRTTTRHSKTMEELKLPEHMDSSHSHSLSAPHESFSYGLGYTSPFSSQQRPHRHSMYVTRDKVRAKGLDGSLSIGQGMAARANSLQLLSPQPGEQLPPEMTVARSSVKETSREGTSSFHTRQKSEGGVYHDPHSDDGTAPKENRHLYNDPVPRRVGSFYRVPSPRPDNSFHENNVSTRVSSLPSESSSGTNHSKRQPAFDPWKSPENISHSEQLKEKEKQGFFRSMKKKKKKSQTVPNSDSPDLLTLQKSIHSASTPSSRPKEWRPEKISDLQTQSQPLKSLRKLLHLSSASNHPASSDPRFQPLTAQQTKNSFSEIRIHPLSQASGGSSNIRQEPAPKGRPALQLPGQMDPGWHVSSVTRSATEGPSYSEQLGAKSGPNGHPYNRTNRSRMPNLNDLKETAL

[4] = target: Dual specificity tyrosine-phosphorylation-regulated kinase 1B (Homo sapiens, UniProt Q9Y463)
Dual specificity tyrosine-phosphorylation-regulated kinase 1B, sequence (Q9Y463 whole entry, looked up): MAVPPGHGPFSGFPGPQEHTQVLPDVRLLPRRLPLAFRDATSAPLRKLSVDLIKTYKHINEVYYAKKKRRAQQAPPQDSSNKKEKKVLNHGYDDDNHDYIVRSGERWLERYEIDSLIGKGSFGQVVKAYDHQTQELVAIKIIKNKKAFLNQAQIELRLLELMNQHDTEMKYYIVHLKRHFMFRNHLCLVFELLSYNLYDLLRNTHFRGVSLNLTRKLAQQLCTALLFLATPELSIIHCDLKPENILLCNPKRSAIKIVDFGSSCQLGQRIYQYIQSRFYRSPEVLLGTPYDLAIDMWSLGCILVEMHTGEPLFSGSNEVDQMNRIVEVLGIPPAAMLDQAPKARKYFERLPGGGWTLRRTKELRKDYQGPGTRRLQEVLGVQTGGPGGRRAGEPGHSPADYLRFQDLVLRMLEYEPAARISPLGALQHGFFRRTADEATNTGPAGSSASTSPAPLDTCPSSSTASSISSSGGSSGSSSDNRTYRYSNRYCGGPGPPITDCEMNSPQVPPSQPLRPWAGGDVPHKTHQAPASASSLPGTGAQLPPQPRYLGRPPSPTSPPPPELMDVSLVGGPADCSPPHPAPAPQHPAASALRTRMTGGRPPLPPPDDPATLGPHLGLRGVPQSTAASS

`COc1cc(N(C)c2ccnc3ccc(C(F)(F)F)cc23)cc(OC)c1OC` was tested, and the % binding [1] was 93%.

Work on `O=C(NOC[C@H](O)CO)c1ccc(F)c(F)c1Nc1ccc(I)cc1F` yielded a % of control [2] of 71%.

For `CN(C)CCOc1ccc(-c2nc(-c3ccncc3)c(-c3ccc4c(c3)CC/C4=N\O)[nH]2)cc1`, the % of control [3] was 100%.

Work on `CCN(CC)CCCCNc1ncc2cc(-c3cc(OC)cc(OC)c3)c(NC(=O)NC(C)(C)C)nc2n1` yielded a % of control [4] of 100%.
